Key:
A549 cells = assay: Lactate dehydrogenase (LDH) release, A549 cells; format: cell-based, human; settings: 10 μM
Experimental: (A) SeAx or HaCat cells cultured in the absence of 10% FBS were left untreated or treated with 4 μM or 10 μM, respectively, of the Antp-AAC-11-LZ (363-399) peptide for the indicated durations. Cells were then analyzed by flow cytometry for PI staining. The results represent the mean number of PI-positive cells±S.D. from at least three independent experiments. (B) A549 and HaCat cells were plated at a densities of 4.5×10^3 in 96 well plates (100 μL total volume per well) and allowed to attach overnight in a 37° C. incubator (5% CO2). Media was removed from cells and replaced with media containing 10 μM Antp-AAC-11-LZ (363-399) peptide (100 μL total volume per well) peptide and the plates were incubated for the indicated durations. Lactate dehydrogenase (LDH) activity released in the culture medium was then assessed and data expressed as a percentage of the maximal level (Max) of LDH activity determined after total cell lysis±S.D. from at least three independent experiments.
(A) SeAx cultured in the absence of 10% FBS were left untreated or treated with 4 μM of the indicated Antp-AAC-11-LZ peptides for various times. Cells were then analyzed by flow cytometry for PI staining. The results represent the mean number of PI-positive cells±S.D. (B) A549 cells were plated at a densities of 4.5×10^3 in 96 well plates (100 μL total volume per well) and allowed to attach overnight in a 37° C. incubator (5% CO2). Media was removed from cells and replaced with media containing the indicated Antp-AAC-11-LZ peptides at 10 μM (100 μL total volume per well) peptide and the plates were incubated for the indicated durations. Lactate dehydrogenase (LDH) activity released in the culture medium was then assessed and data expressed as a percentage of the maximal level (Max) of LDH activity determined after total cell lysis±S.D.

[1] = system: Karpas 1106, SU-DHL-5, SeAx and HUT-78 cells; assay: Cell viability (MTS) of hematologic cancer cell lines under low serum; format: cell-based; settings: increasing concentrations, 24 hours, low serum conditions (0.5-5%), FIG. 1A
Experimental: (A) Karpas 1106, SU-DHL-5, SeAx and HUT-78 cells were plated at a densities of 6×10^3 in 96 well plates (100 μL total volume per well) and treated for 24 hours in a 37° C. incubator (5% CO2) with increasing concentrations of the Antp-AAC-11-LZ (363-399). 20 μL MTS reagent was then added to each well and plates were incubated for an additional 4 hours. Absorbance was measured at 490 nm using a 96-well plate reader. The extent to which the Antp-AAC-11-LZ (363-399) peptide inhibited cell proliferation was calculated as a percentage of the absorbance in each well containing the Antp-AAC-11-LZ (363-399) peptide relative to wells containing no peptide (negative control). […]
Viability of cells cultured in the 96-well culture plates was assessed by measuring mitochondrial dehydrogenase activity, using the colorimetric CellTiter 96® AQueous One Solution Cell Proliferation Assay (Promega), according to the manufacturer′ instructions. […] The color can then be quantified using a simple colorimetric assay. The results are read on a multiwall scanning spectrophotometer (ELISA reader).
The inventors evaluated the capacity of the Antp-AAC-11-LZ (363-399) peptide to induce cell death a panel of hematologic and solid tumor cell lines, both P53 positive and P53 negative, derived from different tissues of origin, under low serum conditions (0.5-5%). […]

For “Ac-RQIKIWFKKQNRRMKWKKAKLNAEKLKDFKIRLQYFARGLQVYIRQLRLALQGKT-NH2 [Antp-AAC-11-LZ (363-399)]”, the LDH release (A549 cells; 5 minutes, relative to maximal LDH release (0.8% Triton X-100)) was roughly 40%, the LDH release (A549 cells; 1 hour, compared to maximum LDH release (0.8% Triton X-100)) was 80% and the “LDH release into cell supernatants, in words” value (A549 cells; time course) was “drastic increase”. The “loss of cellular viability” value [1] was “drastic loss of cellular viability”.
